Assays:
Format in all cases: in vivo
Veronica persica [1] = experiment: Pre-emergence herbicidal action; settings: 1280 g/ha, scored visually after about 3 weeks vs untreated controls
Summary of the method: (§1)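 Test compounds at 1280 g/ha are sprayed onto soil covering freshly sown seeds, using 600 l/ha water with 0.5% additive. Pots stay in the greenhouse about 3 weeks, then activity is rated visually in percent against untreated controls.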

Hordeum murinum = experiment: Pre-emergence herbicidal action; settings: 1280 g/ha, scored visually after about 3 weeks vs untreated controls
Summary of the method: as §1

Matricaria inodora = experiment: Pre-emergence herbicidal action; settings: 1280 g/ha, scored visually after about 3 weeks vs untreated controls
Summary of the method: as §1

Stellaria media [2] = experiment: Pre-emergence herbicidal action; settings: 1280 g/ha, scored visually after about 3 weeks vs untreated controls
Summary of the method: as §1

Viola tricolor [3] = experiment: Pre-emergence herbicidal action; settings: 1280 g/ha, scored visually after about 3 weeks vs untreated controls
Summary of the method: as §1

Polygonum convolvulus [4] = experiment: Pre-emergence herbicidal action; settings: 1280 g/ha, scored visually after about 3 weeks vs untreated controls
Summary of the method: as §1

Alopecurus myosuroides [5] = experiment: Pre-emergence herbicidal action; settings: 1280 g/ha, scored visually after about 3 weeks vs untreated controls
Summary of the method: as §1

Amaranthus retroflexus [6] = experiment: Pre-emergence herbicidal action; settings: 1280 g/ha, scored visually after about 3 weeks vs untreated controls
Summary of the method: as §1

Abutilon theophrasti [7] = experiment: Pre-emergence herbicidal action; settings: 1280 g/ha, scored visually after about 3 weeks vs untreated controls
Summary of the method: as §1

Setaria viridis [8] = experiment: Pre-emergence herbicidal action; settings: 1280 g/ha, scored visually after about 3 weeks vs untreated controls
Summary of the method: as §1

Echinochloa crus-galli [9] = experiment: Pre-emergence herbicidal action; settings: 1280 g/ha, scored visually after about 3 weeks vs untreated controls
Summary of the method: as §1

Veronica persica [10] = experiment: Post-emergence herbicidal action; settings: 1280 g/ha, rated visually after about 3 weeks vs untreated controls
Summary of the method: (§2)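 Greenhouse weeds in sandy loam sprayed at one-leaf stage (2-3 weeks after sowing) with WP or EC formulations plus 0.5% additive, 600 l/ha water, 1280 g/ha. Activity scored visually about 3 weeks later versus untreated controls (100% = dead, 0% = like control).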

Stellaria media [11] = experiment: Post-emergence herbicidal action; settings: 1280 g/ha, rated visually after about 3 weeks vs untreated controls
Summary of the method: as §2

Viola tricolor [12] = experiment: Post-emergence herbicidal action; settings: 1280 g/ha, rated visually after about 3 weeks vs untreated controls
Summary of the method: as §2

Pharbitis purpurea [13] = experiment: Post-emergence herbicidal action; settings: 1280 g/ha, rated visually after about 3 weeks vs untreated controls
Summary of the method: as §2

Polygonum convolvulus [14] = experiment: Post-emergence herbicidal action; settings: 1280 g/ha, rated visually after about 3 weeks vs untreated controls
Summary of the method: as §2

Alopecurus myosuroides [15] = experiment: Post-emergence herbicidal action; settings: 1280 g/ha, rated visually after about 3 weeks vs untreated controls
Summary of the method: as §2

Abutilon theophrasti [16] = experiment: Post-emergence herbicidal action; settings: 1280 g/ha, rated visually after about 3 weeks vs untreated controls
Summary of the method: as §2

Setaria viridis [17] = experiment: Post-emergence herbicidal action; settings: 1280 g/ha, rated visually after about 3 weeks vs untreated controls
Summary of the method: as §2

Echinochloa crus-galli [18] = experiment: Post-emergence herbicidal action; settings: 1280 g/ha, rated visually after about 3 weeks vs untreated controls
Summary of the method: as §2

Pharbitis purpurea [19] = experiment: Pre-emergence herbicidal action; settings: 1280 g/ha, scored visually after about 3 weeks vs untreated controls
Summary of the method: as §1

Lolium rigidum = experiment: Pre-emergence herbicidal action; settings: 1280 g/ha, scored visually after about 3 weeks vs untreated controls
Summary of the method: as §1

Avena fatua = experiment: Pre-emergence herbicidal action; settings: 1280 g/ha, scored visually after about 3 weeks vs untreated controls
Summary of the method: as §1

Amaranthus retroflexus [20] = experiment: Post-emergence herbicidal action; settings: 1280 g/ha, rated visually after about 3 weeks vs untreated controls
Summary of the method: as §2

| SMILES | herbicidal activity on Hordeum murinum (Hordeum murinum) | herbicidal activity on Matricaria inodora (Matricaria inodora) | herbicidal activity on Stellaria media (Stellaria media [2]) | herbicidal activity on Viola tricolor (Viola tricolor [3]) | herbicidal activity on Polygonum convolvulus (Polygonum convolvulus [4]) | herbicidal activity on Alopecurus myosuroides (Alopecurus myosuroides [5]) | herbicidal activity on Amaranthus retroflexus (Amaranthus retroflexus [6]) | herbicidal activity on Abutilon theophrasti (Abutilon theophrasti [7]) | herbicidal activity on Setaria viridis (Setaria viridis [8]) | herbicidal activity on Echinochloa crus-galli (Echinochloa crus-galli [9]) | herbicidal activity on Veronica persica (Veronica persica [10]) | herbicidal activity on Stellaria media (Stellaria media [11]) | herbicidal activity on Viola tricolor (Viola tricolor [12]) | herbicidal activity on Polygonum convolvulus (Polygonum convolvulus [14]) | herbicidal activity on Alopecurus myosuroides (Alopecurus myosuroides [15]) | herbicidal activity on Abutilon theophrasti (Abutilon theophrasti [16]) | herbicidal activity on Setaria viridis (Setaria viridis [17]) | herbicidal activity on Lolium rigidum (Lolium rigidum) | herbicidal activity on Avena fatua (Avena fatua) | herbicidal activity on Amaranthus retroflexus (Amaranthus retroflexus [20]) | also measured |
| --- | --- | --- | --- | --- | --- | --- | --- | --- | --- | --- | --- | --- | --- | --- | --- | --- | --- | --- | --- | --- | --- |
| Fc1ccc(Sc2c(Oc3ncccn3)nn3c2CCOCC3)c(F)c1 [Example I-163] | 90% | 100% | 90% | 100% | 100% | 90% | 90% | 100% | 100% | 100% | 80% | 80% | 90% | 100% | 90% | 90% | 90% | – | – | – | herbicidal activity on Veronica persica (Veronica persica [1]): 90%; herbicidal activity on Pharbitis purpurea (Pharbitis purpurea [13]): 90%; herbicidal activity on Echinochloa crus-galli (Echinochloa crus-galli [18]): 90% |
| COc1cnc(Oc2nn(C)c(C)c2Sc2ccc(F)cc2F)nc1 [Example I-205] | 100% | 100% | 100% | 100% | 100% | 100% | 100% | 100% | 100% | 100% | – | – | 90% | – | – | 90% | 80% | 100% | 100% | 90% | herbicidal activity on Veronica persica (Veronica persica [1]): 100%; herbicidal activity on Pharbitis purpurea (Pharbitis purpurea [19]): 100% |
| CCc1c(Sc2ccccc2)c(Oc2ncc(F)cn2)nn1C [Example I-155] | 100% | 100% | 100% | 100% | – | 100% | 100% | 100% | 100% | 90% | 100% | 90% | 100% | – | 90% | 80% | 80% | 80% | 100% | 100% | herbicidal activity on Pharbitis purpurea (Pharbitis purpurea [13]): 80% |
| Fc1ccc(Sc2c(Oc3ncc(F)cn3)nn3c2CCOCC3)cc1 [Example I-122] | 90% | 100% | 100% | 100% | 100% | 100% | 100% | 100% | 100% | 100% | 90% | 90% | 90% | 100% | 90% | 100% | 100% | – | 80% | – | herbicidal activity on Veronica persica (Veronica persica [1]): 100%; herbicidal activity on Pharbitis purpurea (Pharbitis purpurea [13]): 90%; herbicidal activity on Echinochloa crus-galli (Echinochloa crus-galli [18]): 90% |
| CCc1c(Sc2ccc(F)c(F)c2)c(Oc2ncccn2)nn1C [Example I-062] | 100% | 100% | 100% | 100% | 100% | 100% | 100% | 100% | 100% | 100% | – | 90% | 100% | 90% | 80% | 100% | – | 80% | 80% | 100% | herbicidal activity on Pharbitis purpurea (Pharbitis purpurea [19]): 80% |
| CCc1c(Sc2ccc(F)cc2)c(Oc2ncc(F)cn2)nn1C [Example I-183] | 100% | 100% | 100% | 100% | 100% | 100% | 100% | 100% | 100% | 100% | 90% | 90% | 100% | 90% | 90% | 90% | 100% | 100% | – | 100% | herbicidal activity on Pharbitis purpurea (Pharbitis purpurea [13]): 100%; herbicidal activity on Echinochloa crus-galli (Echinochloa crus-galli [18]): 90% |
| CCn1cc(Sc2ccc(F)cc2)c(Oc2ncc(F)cn2)n1 [Example I-211] | – | 90% | 100% | 100% | 90% | 90% | 100% | 90% | 100% | 90% | – | 100% | 80% | 100% | – | – | 90% | 100% | – | – | herbicidal activity on Veronica persica (Veronica persica [1]): 100%; herbicidal activity on Pharbitis purpurea (Pharbitis purpurea [19]): 80% |
| CCc1c(Sc2ccc(F)cc2F)c(Oc2ncccn2)nn1C [Example I-136] | – | 100% | 100% | 100% | 100% | 100% | 100% | 100% | 100% | 90% | 100% | 90% | 100% | – | – | 90% | – | 100% | 90% | 100% | – |
| CCn1cc(Sc2ccc(F)cc2)c(Oc2ncccn2)n1 [Example I-038] | – | 90% | 100% | 100% | 80% | 80% | 100% | 80% | 100% | 80% | – | – | 90% | – | – | – | – | – | – | – | herbicidal activity on Pharbitis purpurea (Pharbitis purpurea [19]): 80% |
